Assays:
[1] = target: His-CREBBP (1081-1197) bromodomain (Homo sapiens (Human), UniProt Q92793); test: AlphaScreen in-vitro binding assay for CREBBP; settings: biochemical
Summary of the method: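 Ni-chelate acceptor and streptavidin donor beads (45 µg/mL each, in 50 mM HEPES pH 7.5, 150 mM NaCl, 0.02% BSA) were then added for 60 min at room temperature. IC50 came from 8-point non-linear regression.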

His-Brd2(60-472) = His-Brd2(60-472) (Homo sapiens (Human), UniProt P25440); test: TR-FRET in-vitro binding assay for BRD2; settings: biochemical
Summary of the method: (§1)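 Eight-point dilution series tested against in-house His-BRD2(60-472), BRD3(20-477) or BRD4(44-477) (45 nM in dispensed solution) binding acetyl-histone H4 (AcK5,8,12,16; 60 nM in dispensed solution). Incubation 35 min at 30 °C, pH 7.5 HEPES buffer; detection by TR-FRET using Eu-anti-His6 and streptavidin-allophycocyanin.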

His-Brd4(44-477) = His-Brd4(44-477) (Homo sapiens (Human), UniProt O60885); test: TR-FRET in-vitro binding assay for BRD4; settings: biochemical
Summary of the method: as §1

His-Brd3(20-477) = His-Brd3(20-477) (Homo sapiens (Human), UniProt Q15059); test: TR-FRET in-vitro binding assay for BRD3; settings: biochemical
Summary of the method: as §1

MV-4-11 cells = test: Cell growth inhibition assay (CellTiter-Glo), MV-4-11; assay type: cell-based; settings: Homo sapiens, MV4-11, read-out: MV-4-11 TGI
Summary of the method: (§2)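 Compounds tested as 3-fold dilution series starting at 10 μM (DMSO 0.1% final); viability read by cellular ATP (CTG luminescence) at 37° C. Signal corrected for no-cell background and a day-0 plate, scaled −100% to 100%; four-parameter fitting gives IC50 and TGI.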

THP-1 cells = test: Cell growth inhibition assay (CellTiter-Glo), THP-1; assay type: cell-based; settings: Homo sapiens, read-out: THP-1 TGI
Summary of the method: as §2

K-562 cells = test: Cell growth inhibition assay (CellTiter-Glo), K-562; assay type: cell-based, human; settings: Homo sapiens, K562, read-out: K-562 TGI
Summary of the method: as §2

Sequence of His-Brd3(20-477) (Q15059 20-477): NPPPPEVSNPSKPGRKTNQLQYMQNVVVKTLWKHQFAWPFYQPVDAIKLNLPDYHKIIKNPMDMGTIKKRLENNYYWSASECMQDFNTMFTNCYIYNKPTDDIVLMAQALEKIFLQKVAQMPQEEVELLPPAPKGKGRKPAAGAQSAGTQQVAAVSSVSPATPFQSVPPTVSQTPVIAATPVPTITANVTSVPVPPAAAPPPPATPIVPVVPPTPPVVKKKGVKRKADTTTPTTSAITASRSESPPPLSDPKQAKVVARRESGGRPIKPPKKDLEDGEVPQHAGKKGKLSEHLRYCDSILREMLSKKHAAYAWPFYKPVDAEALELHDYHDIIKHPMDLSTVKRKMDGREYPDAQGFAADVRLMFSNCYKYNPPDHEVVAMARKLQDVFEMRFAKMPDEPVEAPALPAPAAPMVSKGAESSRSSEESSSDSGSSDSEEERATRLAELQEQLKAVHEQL
Sequence of His-CREBBP (1081-1197) bromodomain (Q92793 1081-1197): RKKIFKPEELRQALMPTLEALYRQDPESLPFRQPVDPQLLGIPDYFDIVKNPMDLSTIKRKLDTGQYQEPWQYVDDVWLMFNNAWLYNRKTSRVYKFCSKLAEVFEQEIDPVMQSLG
Sequence of His-Brd2(60-472) (P25440 60-472): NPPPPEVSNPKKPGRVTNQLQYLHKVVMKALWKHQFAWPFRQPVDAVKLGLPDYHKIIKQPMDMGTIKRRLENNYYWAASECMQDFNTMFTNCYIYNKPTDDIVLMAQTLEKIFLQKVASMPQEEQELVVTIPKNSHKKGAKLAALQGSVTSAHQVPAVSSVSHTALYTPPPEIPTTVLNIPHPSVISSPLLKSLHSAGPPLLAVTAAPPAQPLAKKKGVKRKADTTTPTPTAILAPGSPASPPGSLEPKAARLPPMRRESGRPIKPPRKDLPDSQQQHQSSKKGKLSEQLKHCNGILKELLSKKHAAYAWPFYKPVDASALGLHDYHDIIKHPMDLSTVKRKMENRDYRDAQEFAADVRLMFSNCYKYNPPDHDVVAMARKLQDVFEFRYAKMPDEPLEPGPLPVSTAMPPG

Row | IC50 [1] | IC50 (His-Brd2(60-472)) | IC50 (His-Brd4(44-477)) | IC50 (His-Brd3(20-477)) | Structure (SMILES) | IC (total growth inhibition) (MV-4-11 cells) | IC (total growth inhibition) (THP-1 cells) | IC (total growth inhibition) (K-562 cells)
1 | 5200 nM | 90 nM | 45 nM | 65 nM | COc1ncccc1-n1nc2c(c1C)C(c1ccc(Cl)cc1F)N(c1cc(C)c3nnc(C)n3c1)C2=O (centres unmarked) [Example 194, 4-(4-chloro-2-fluorophenyl)-5-(3,8-dimethyl-[1,2,4]triazolo[4,3-a]pyridin-6-yl)-2-(2-methoxypyridin-3-yl)-3-methyl-4,5-dihydropyrrolo[3,4-c]pyrazol-6(2H)-one] | 0.0936 µM | 0.174 µM | > 10 µM
2 | > 37000 nM | 20 nM | < 11 nM | 16 nM | Cc1nn(C2CC2)c2c1C(c1ccc(Cl)cc1)N(c1cc(C)c3nnc(C(F)F)n3n1)C2=O (centres unmarked) [Example 195, 4-(4-chlorophenyl)-1-cyclopropyl-5-(3-(difluoromethyl)-8-methyl-[1,2,4]triazolo[4,3-b]pyridazin-6-yl)-3-methyl-4,5-dihydropyrrolo[3,4-c]pyrazol-6(1H)-one] | 0.0452 µM | 0.0804 µM | > 10 µM
3 | 32000 nM | 68 nM | 66 nM | 62 nM | Cc1nn(C2CC2)c2c1C(c1ccc(Cl)cc1F)N(c1cc(C)c3nnc(C)n3c1)C2=O (centres unmarked) [Example 178, 4-(4-chloro-2-fluorophenyl)-1-cyclopropyl-5-(3,8-dimethyl-[1,2,4]triazolo[4,3-a]pyridin-6-yl)-3-methyl-4,5-dihydropyrrolo[3,4-c]pyrazol-6(1H)-one] | 0.0491 µM | 0.107 µM | > 10 µM
4 | 2400 nM | 89 nM | 83 nM | 71 nM | Cc1nn(C(C)C)c2c1C(c1ccc(Cl)cc1F)N(c1cc(C)c(=O)n(C)c1)C2=O (centres unmarked) [Example 180, 4-(4-chloro-2-fluorophenyl)-5-(1,5-dimethyl-6-oxo-1,6-dihydropyridin-3-yl)-1-isopropyl-3-methyl-4,5-dihydropyrrolo[3,4-c]pyrazol-6(1H)-one] | 0.108 µM | 0.186 µM | > 10 µM
5 | > 37000 nM | 62 nM | 34 nM | 40 nM | CCn1nc(C)c2c1C(=O)N(c1cc(C)c3nnc(C)n3c1)C2c1ccc(F)cc1F (centres unmarked) [Example 181, 4-(2,4-difluorophenyl)-5-(3,8-dimethyl-[1,2,4]triazolo[4,3-a]pyridin-6-yl)-1-ethyl-3-methyl-4,5-dihydropyrrolo[3,4-c]pyrazol-6(1H)-one] | 0.0886 µM | 0.117 µM | > 10 µM
6 | 3800 nM | 40 nM | 29 nM | 33 nM | Cc1nn(C(C)C)c2c1[C@@H](c1ccc(Cl)cc1F)N(c1cc(C)c3nnc(C)n3c1)C2=O [Example 189, (S)-4-(4-chloro-2-fluorophenyl)-5-(3,8-dimethyl-[1,2,4]triazolo[4,3-a]pyridin-6-yl)-1-isopropyl-3-methyl-4,5-dihydropyrrolo[3,4-c]pyrazol-6(1H)-one] | 0.0269 µM | 0.0261 µM | > 10 µM
7 | 6100 nM | 140 nM | 69 nM | 61 nM | CCn1nc2c(c1C)C(c1ccc(Cl)cc1F)N(c1cc(C)c3nnc(C)n3c1)C2=O (centres unmarked) [Example 186, 4-(4-chloro-2-fluorophenyl)-5-(3,8-dimethyl-[1,2,4]triazolo[4,3-a]pyridin-6-yl)-2-ethyl-3-methyl-4,5-dihydropyrrolo[3,4-c]pyrazol-6(2H)-one] | 0.0882 µM | 0.145 µM | > 10 µM

The remaining lines, values behind:

Row | Structure (SMILES) | IC50 [1] | IC50 (His-Brd2(60-472)) | IC50 (His-Brd4(44-477)) | IC50 (His-Brd3(20-477)) | IC (total growth inhibition) (MV-4-11 cells) | IC (total growth inhibition) (THP-1 cells) | IC (total growth inhibition) (K-562 cells)
8 | COc1ncccc1-n1nc(C)c2c1C(=O)N(c1cc(C)c3nnc(C)n3c1)C2c1ccc(F)cc1F (centres unmarked) [Example 173, 4-(2,4-difluorophenyl)-5-(3,8-dimethyl-[1,2,4]triazolo[4,3-a]pyridin-6-yl)-1-(2-methoxypyridin-3-yl)-3-methyl-4,5-dihydropyrrolo[3,4-c]pyrazol-6(1H)-one] | > 37000 nM | 79 nM | 58 nM | 87 nM | 0.139 µM | 0.282 µM | > 10 µM
9 | Cc1nn(C)c2c1C(c1ccc(Cl)cc1)N(c1cc(C)c(=O)n(C)c1)C2=O (centres unmarked) [Example 57, 4-(4-chlorophenyl)-5-(1,5-dimethyl-6-oxo-1,6-dihydropyridin-3-yl)-1,3-dimethyl-4,5-dihydropyrrolo[3,4-c]pyrazol-6(1H)-one] | 6800 nM | 270 nM | 120 nM | 130 nM | 0.109 µM | 0.24 µM | > 10 µM
10 | Cc1[nH]nc2c1C(c1ccc(Cl)cc1)N(c1cc(C)c(=O)n(C)c1)C2=O (centres unmarked) [Example 27, 4-(4-chlorophenyl)-5-(1,5-dimethyl-6-oxo-1,6-dihydropyridin-3-yl)-3-methyl-4,5-dihydropyrrolo[3,4-c]pyrazol-6(2H)-one] | 3800 nM | 310 nM | 95 nM | 180 nM | 0.158 µM | 0.363 µM | > 10 µM
11 | Cc1c2c(nn1C(C)C)C(=O)N(c1cc(Cl)c(=O)n(C)c1)C2c1ccc(Cl)cc1 (centres unmarked) [Example 65, 5-(5-chloro-1-methyl-6-oxo-1,6-dihydropyridin-3-yl)-4-(4-chlorophenyl)-2-isopropyl-3-methyl-4,5-dihydropyrrolo[3,4-c]pyrazol-6(2H)-one] | 420 nM | 240 nM | 200 nM | 130 nM | 0.109 µM | 0.217 µM | > 10 µM
12 | Cc1nn(C2CC2)c2c1C(c1ccc(F)cc1F)N(c1cc(C)c3nnc(C)n3c1)C2=O (centres unmarked) [Example 176, 1-cyclopropyl-4-(2,4-difluorophenyl)-5-(3,8-dimethyl-[1,2,4]triazolo[4,3-a]pyridin-6-yl)-3-methyl-4,5-dihydropyrrolo[3,4-c]pyrazol-6(1H)-one] | > 37000 nM | 120 nM | 100 nM | 90 nM | 0.0631 µM | 0.106 µM | > 10 µM
13 | CCc1nn(C2CC2)c2c1C(c1ccc(Cl)cc1)N(c1cc(C)c(=O)n(C)c1)C2=O (centres unmarked) [Example 69] | 4100 nM | 26 nM | 27 nM | 28 nM | 0.0466 µM | 0.0983 µM | > 10 µM
14 | CCc1nn(-c2cnc(OC)nc2OC)c2c1C(c1ccc(Cl)cc1)N(c1cc(C)c(=O)n(C)c1)C2=O (centres unmarked) [Example 60, 4-(4-chlorophenyl)-1-(2,4-dimethoxypyrimidin-5-yl)-5-(1,5-dimethyl-6-oxo-1,6-dihydropyridin-3-yl)-3-ethyl-4,5-dihydropyrrolo[3,4-c]pyrazol-6(1H)-one] | 8800 nM | 160 nM | 140 nM | 120 nM | 0.154 µM | 0.302 µM | > 10 µM
15 | Cc1nn(C(C)C)c2c1C(c1ccc(F)cc1F)N(c1cc(C)c3nnc(C)n3c1)C2=O (centres unmarked) [Example 174, 4-(2,4-difluorophenyl)-5-(3,8-dimethyl-[1,2,4]triazolo[4,3-a]pyridin-6-yl)-1-isopropyl-3-methyl-4,5-dihydropyrrolo[3,4-c]pyrazol-6(1H)-one] | 12000 nM | 110 nM | 52 nM | 72 nM | 0.0588 µM | 0.105 µM | > 10 µM
16 | Cc1nn(C(C)C)c2c1C(c1ccc(Cl)cc1)N(c1cc(Cl)c(=O)n(C)c1)C2=O (centres unmarked) [Example 66, 5-(5-chloro-1-methyl-6-oxo-1,6-dihydropyridin-3-yl)-4-(4-chlorophenyl)-1-isopropyl-3-methyl-4,5-dihydropyrrolo[3,4-c]pyrazol-6(1H)-one] | 2600 nM | 160 nM | 120 nM | 110 nM | 0.106 µM | 0.248 µM | > 10 µM
17 | Cc1cc(N2C(=O)c3c(c(C(F)(F)F)nn3C3CC3)C2c2ccc(Cl)cc2)cn(C)c1=O (centres unmarked) [Example 45, 4-(4-chlorophenyl)-1-cyclopropyl-5-(1,5-dimethyl-6-oxo-1,6-dihydropyridin-3-yl)-3-(trifluoromethyl)-4,5-dihydropyrrolo[3,4-c]pyrazol-6(1H)-one] | 4800 nM | 60 nM | 85 nM | 100 nM | 0.373 µM | 0.698 µM | > 10 µM

Reference: patent publication US8975417B2, “Pyrazolopyrrolidine derivatives and their use in the treatment of disease” (Novartis AG, priority 2013, dated 2015)
